Like-named read-outs stand apart in the source and are kept apart here.
Key:
GroEL/ES = biological target: T1, GroEL/ES (Escherichia coli, UniProt P0A6F5); assay: GroEL/ES-mediated dMDH refolding assay; format: biochemical, E. coli
T1 construct: made in house; host or cells: GroEL in E. coli DH5a; GroES in E. coli BL21 (DE3)
Outline: (§1)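 Pre-formed chaperonin–denatured pig heart MDH complexes (50 nM GroEL or HSP60, 60 nM GroES or HSP10, 12 nM dMDH) refolded with 1 mM ATP and compound (100 μM–46 nM) at 37 °C, ~20-40 min for GroEL/ES or ~40-60 min for HSP60/10. After EDTA quench, MDH activity was read as NADH loss at A340. IC50 came from variable-slope regression.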

HSP60/10 = biological target: T2, HSP60/10 (Homo sapiens, UniProt P10809); assay: HSP60/10-mediated dMDH refolding assay; format: biochemical; conditions: 37° C., 1 mM ATP, read-out: Biochemical Assay IC50 HSP60/10-dMDH Refolding
T2 construct: octa-Histidine (His8) tag, TEV-cleavable (N, cleaved yes); made in house; host or cells: HSP60 in Rosetta 2 (DE3) E. coli; HSP10 in Rosetta 2 (DE3) pLysS
Outline: as §1

S. aureus = S. aureus bacterial proliferation assay; format: cell-based; conditions: cation adjusted BHI media, OD600 at 6-8 h; for EC50: Staphylococcus aureus, read-out: S. aureus Proliferation EC50
Outline: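 Growth in BHI with 25 mg/L Ca2+ and 12.5 mg/L Mg2+; log-phase cultures diluted to OD600 0.017 and exposed to compounds at 100 μM–46 nM (3-fold series). Stagnant 37 °C incubation, OD600 read at 6–8 h, corrected with bacteria-free plates; EC50 by variable-slope nonlinear regression.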

T2 sequence (P10809 27-573): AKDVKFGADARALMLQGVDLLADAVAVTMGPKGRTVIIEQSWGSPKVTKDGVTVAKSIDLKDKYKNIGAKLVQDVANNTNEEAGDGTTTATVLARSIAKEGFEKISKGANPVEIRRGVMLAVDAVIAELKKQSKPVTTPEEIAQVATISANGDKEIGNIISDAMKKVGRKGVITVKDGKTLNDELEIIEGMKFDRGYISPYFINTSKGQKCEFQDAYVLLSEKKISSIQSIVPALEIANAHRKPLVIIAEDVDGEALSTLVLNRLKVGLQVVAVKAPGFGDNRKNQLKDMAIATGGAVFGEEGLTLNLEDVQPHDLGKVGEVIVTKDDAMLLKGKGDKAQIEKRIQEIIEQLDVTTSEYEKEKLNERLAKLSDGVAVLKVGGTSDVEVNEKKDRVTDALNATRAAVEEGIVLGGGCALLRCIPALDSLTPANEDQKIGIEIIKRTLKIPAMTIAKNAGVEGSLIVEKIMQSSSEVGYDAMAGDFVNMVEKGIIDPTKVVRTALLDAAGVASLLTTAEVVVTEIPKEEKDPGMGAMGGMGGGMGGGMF
T1 sequence (P0A6F5 2-548): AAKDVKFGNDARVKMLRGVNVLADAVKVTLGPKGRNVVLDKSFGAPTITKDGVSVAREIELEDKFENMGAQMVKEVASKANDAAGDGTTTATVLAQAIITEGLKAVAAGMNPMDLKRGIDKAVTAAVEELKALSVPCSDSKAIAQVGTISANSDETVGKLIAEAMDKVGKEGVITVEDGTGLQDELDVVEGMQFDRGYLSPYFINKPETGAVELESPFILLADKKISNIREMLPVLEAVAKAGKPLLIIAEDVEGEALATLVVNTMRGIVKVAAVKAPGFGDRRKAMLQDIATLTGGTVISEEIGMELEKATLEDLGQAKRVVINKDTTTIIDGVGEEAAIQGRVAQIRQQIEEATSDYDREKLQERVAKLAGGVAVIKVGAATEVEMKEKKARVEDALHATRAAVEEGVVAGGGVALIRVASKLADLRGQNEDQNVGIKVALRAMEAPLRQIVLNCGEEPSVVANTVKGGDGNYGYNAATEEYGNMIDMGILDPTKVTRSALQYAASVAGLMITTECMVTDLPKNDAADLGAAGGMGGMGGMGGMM

Cc1cc(C(C#N)c2ccc(Cl)cc2)c(Cl)cc1NC(=O)c1cccc(Cl)c1O (centres unmarked) [Compound 54, 3-chloro-N-(5-chloro-4-((4-chlorophenyl)(cyano)methyl)-2-methylphenyl)-2-hydroxybenzamide]
IC50 (GroEL/ES): 14 µM | IC50 (HSP60/10; Table 2): 6.4 µM | EC50 (S. aureus; Table 2): 560 nM

COc1c(Br)cc(Br)cc1C(=O)Nc1cc(Cl)c(C(C#N)c2ccc(Cl)cc2)cc1C (centres unmarked) [Compound 45, 3,5-dibromo-N-(5-chloro-4-((4-chlorophenyl)(cyano)methyl)-2-methylphenyl)-2-methoxybenzamide]
IC50 (GroEL/ES): 30 µM | IC50 (HSP60/10; Table 2): > 100 µM | S. aureus Proliferation EC50 (S. aureus; Table 2): > 100 µM

Cc1cc(C(C#N)c2ccc(Cl)cc2)c(Cl)cc1NC(=O)c1cccc(N)c1 (centres unmarked) [Compound 71, 3-amino-N-(5-chloro-4-((4-chlorophenyl)(cyano)methyl)-2-methylphenyl)benzamide]
IC50 (GroEL/ES): 51 µM | IC50 (HSP60/10; Table 2): > 100 µM | S. aureus Proliferation EC50 (S. aureus; Table 2): > 100 µM

COc1ccc(Cl)cc1C(=O)Nc1ccc(Sc2nc3ccccc3s2)c(Cl)c1 [Compound 94, N-(4-(benzo[d]thiazol-2-ylthio)-3-chlorophenyl)-5-chloro-2-methoxybenzamide]
IC50 (GroEL/ES): 61 µM | IC50 (HSP60/10; Table 3): > 100 µM | EC50 (S. aureus; Table 3): > 100000 nM

Cc1cc(C(C#N)c2ccc(Cl)cc2)c(Cl)cc1NC(=O)c1ccc([N+](=O)[O-])cc1 (centres unmarked) [Compound 69, N-(5-chloro-4-((4-chlorophenyl)(cyano)methyl)-2-methylphenyl)-4-nitrobenzamide]
IC50 (GroEL/ES): 37 µM | IC50 (HSP60/10; Table 2): > 100 µM | S. aureus Proliferation EC50 (S. aureus; Table 2): > 100 µM

O=C(Nc1ccc(Sc2nc3ccccc3s2)cc1)c1cc(Cl)ccc1O [Compound 97, N-(4-(benzo[d]thiazol-2-ylthio)phenyl)-5-chloro-2-hydroxybenzamide]
IC50 (GroEL/ES): 24 µM | IC50 (HSP60/10; Table 3): 59 µM | EC50 (S. aureus; Table 3): 100 nM

COc1ccc(Cl)cc1C(=O)Nc1cc(Cl)c(C(C#N)c2ccc(Cl)cc2)cc1C (centres unmarked) [Compound 57, 5-chloro-N-(5-chloro-4-((4-chlorophenyl)(cyano)methyl)-2-methylphenyl)-2-methoxybenzamide]
IC50 (GroEL/ES): 59 µM | IC50 (HSP60/10; Table 2): > 100 µM | IC50 (HSP60/10; Table 3): > 100 µM | EC50 (S. aureus; Table 3): > 100000 nM | S. aureus Proliferation EC50 (S. aureus; Table 2): > 100 µM
